# Measurements reported in PubChem BioAssay AID2423 (Broad Institute, 2010).
# pEC50: −log10 of the molar value. Values joined by “and” are separate entries in the source; they are usually repeats but may differ in a detail not shown here. Equal entries are not always repeated. Results filed as inconclusive are left out. Active and inactive are the calls of the source. How the calls were made is not given here.
# Test system: C. albicans CaCi-8 + fluconazole, Alamar Blue growth, 48 h
# Test: resistant C. albicans growth inhibition with fluconazole, dose response, CaCi-8 strain, Alamar Blue fluorescence (AID 2423)
SMILES,pEC50,EC50
O=C(COc1ccc([N+](=O)[O-])cc1)NNC(=S)NC(=O)c1ccc(Br)cc1,5.60,–
CCCOC(c1ccccc1)(c1ccc(C(F)(F)F)cc1)C(Oc1nc(C)cc(C)n1)C(=O)O (stereo not drawn),5.19,–
CS(=O)(=O)NN1C(=O)c2ccccc2NC1c1cccc2cccnc12 (stereo not drawn),5.67,–
Cc1cccc(C(=O)CC(=O)c2cc(Cl)ccc2O)c1,5.57,–
O=C(Nc1nnc(COc2ccc(F)cc2)s1)c1ccco1,5.11,–
COc1ccc(OC)c2[nH]c(C(=O)N/N=C/c3ccccc3O)cc12,6.04,–
COc1ccc(-c2n(CC(=O)OC3CC(C)CCC3C(C)C)c3ccccc3[n+]2C)cc1 (stereo not drawn),6.44,–
CC(=O)N1CCN(c2ccc(NC(=O)c3ccc(C(C)(C)C)cc3)cc2)CC1,4.93,–
CN(C)S(=O)(=O)Oc1cccc(C(=O)Nc2ccc(Cl)cc2)c1,5.53,–
O=C(O/N=C1/CCSc2ccccc21)c1ccc(F)cc1,–,> 15 µM (inactive)
CCCC(=O)NC(=S)NNC(=O)c1ccc([N+](=O)[O-])cc1,5.31,–
CCCc1ccc(/C=C2\C(=O)c3ccccc3C(O)=C2C(=O)OCC)cc1,–,> 15 µM (inactive)
Cc1cc(Sc2nc(N)ncc2[N+](=O)[O-])ncn1,5.67,–
Oc1ccc(Cl)cc1C1=NNC(c2cc(Br)cc3c2OCOC3)C1 (stereo not drawn),–,> 16 µM (inactive)
COc1ccc(N(C(=O)Cn2nnc3ccccc32)C(C(=O)NC(C)(C)C)c2ccc(OC)c(O)c2)cc1 (stereo not drawn),5.66,–
CCN1/C(=C\c2ccc3cc(C)ccc3[n+]2CC)Sc2cc(C)c(C)cc21,> 6.92,–
O=c1c2ccc(Cl)cc2nc(-c2cccc(C(F)(F)F)c2)n1O,6.08,–
COc1cccc(F)c1C(C[N+](=O)[O-])c1c(N)n(C)c(=O)n(C)c1=O (stereo not drawn),5.78,–
CCC(C)c1ccc(O)c(NC(=S)NC(=O)c2cccnc2)c1 (stereo not drawn),6.06,–
COc1cc(/C=C(\C#N)c2nc3ccccc3s2)cc([N+](=O)[O-])c1O,–,> 15 µM (inactive)
Cc1cccc(NCc2ccc(O)c3ncccc23)c1C,4.93,–
CCc1ccc(C2c3[nH]c4ccccc4c3CCN2C(=O)c2ccc(=O)n(C)n2)cc1 (stereo not drawn),6.47,–

SMILES,pEC50,EC50
CCn1c(=O)n(CC(=O)N2CCN(c3ccccc3F)CC2)c(=O)c2ccccc21,–,> 16 µM (inactive)
O=C(NCCc1ccccc1)c1c(O)c2cccc3c2n(c1=O)CC3,–,> 15 µM (inactive)
C/C(=N\NC(=O)c1nn(C)c(C)c1Br)c1ccc(NC(=O)C2CCCC2)cc1,–,> 15 µM (inactive)
O=C(c1cc2c(s1)CCCCC2)N1CCN(c2ncccn2)CC1,6.87,–
COc1ccc(-n2cccc2/C=C2\C(=N)N3N=C(C(C)C)SC3=NC2=O)cc1,4.79,–
Cc1nn(-c2ccccc2)c(C)c1C(=O)OC/C(O)=C(\C#N)c1nc2ccccc2[nH]1,5.99,–
NC(=S)n1[nH]c(-c2ccccc2)c(N=Nc2ccccc2C(=O)N2CCOCC2)c1=O,5.07,–
O=[N+]([O-])c1c(C(Cl)Cl)nn(-c2ccc(Cl)cc2)c1N1CCCCC1,6.36,–
CC(C)(C)c1ccc(Cc2n[nH]c(=S)[nH]c2=O)cc1,6.45,–
O=C(CSCc1cccc(CSCC(=O)Nc2ccccc2)n1)Nc1ccccc1,–,> 15 µM (inactive)
COc1ccc(Cn2c(O)c(/C=N/NC(=O)c3cccnc3)c3ccccc3c2=O)cc1,6.12,–
O=C(CCS(=O)(=O)c1ccc(F)cc1)Nc1nc(-c2ccncc2)cs1,5.83,–
CCOc1ccc(Nc2nc(NCC3CCCO3)c3ccccc3n2)cc1 (stereo not drawn),5.70,–
CCCCC(=O)NNC(=S)NC(=O)c1ccc(C)cc1,5.11,–
O=c1[nH]c(Nc2ccc3c(c2)OCCO3)nnc1Cc1ccccc1,–,> 16 µM (inactive)
COc1ccc(NC(=O)NC(C)c2ccccc2)cc1 (stereo not drawn),–,> 16 µM (inactive)
COc1ccc(C(=O)N2c3ccccc3C=CC2C#N)cc1 (stereo not drawn),5.76,–
COc1cc(C(=O)Oc2c(CN3CCOCC3)cc(Cl)c3cccnc23)cc(OC)c1OC,5.56,–
Nc1cc(N)nc(SCc2cccc(F)c2)n1,–,> 15 µM (inactive)
N#Cc1c(Cl)nsc1NC(=O)c1ccccc1,–,> 16 µM (inactive)
CCCCCCC[n+]1ccc(-c2cc[n+](CCCCCCC)cc2)cc1,> 6.92,–
C/C(=N\O)c1cc(Cl)cc(Cl)c1O,5.44,–

SMILES,pEC50,EC50
C[n+]1c2n(c3ccccc31)N=C(c1ccc(-c3ccccc3)cc1)CS2,5.73,–
C(#Cc1ccccc1)C[N+]1(CC#Cc2ccccc2)CCCCC1,4.98,–
O=C(CNc1ccc2ccccc2c1)N/N=C/c1ccc([N+](=O)[O-])o1,5.89,–
O=c1[nH]n2c(C(F)(F)F)cc(C3CC3)nc2c1N=Nc1ccccc1,5.37,–
Cc1ccc2nc(-c3ccc(NC(=S)NC4CC(C)(C)NC(C)(C)C4)cc3)sc2c1,5.72,–
O=C(NC(=S)Nc1ccccc1O)c1ccc(Cl)cc1Cl,6.20,–
O=C(CCc1ccccc1)NNC(=S)NC(=O)c1ccc(Cl)cc1,5.70,–
Cc1c(OCC(=O)NCC(O)c2ccccc2)ccc2c(-c3ccccc3)cc(=O)oc12 (stereo not drawn),5.90,–
CCCCn1c(=O)[nH]c(=O)c2c1nc(-c1ccc(-c3ccccc3Br)o1)n2CC,–,> 15 µM (inactive)
O=[N+]([O-])c1cccc(-c2cc(-c3cc(Br)ccc3O)[nH]n2)c1,6.06,–
Cc1ccc(/C=N/NC(=O)c2c(-c3ccccc3)noc2C)c(O)c1,5.21,–
O=C(Cc1ccc(O)cc1)N/N=C/c1cccnc1,–,> 16 µM (inactive)
Cc1ccc(S(=O)(=O)NNC(=O)c2ccc(NC(=O)C3CC3)cc2)cc1,–,> 15 µM (inactive)
O=C(NNC(=S)NC(=O)c1ccccc1[N+](=O)[O-])c1ccc(Cl)cc1Cl,5.73,–
CC(C)NC(=S)N/N=C/c1ccc(C(C)(C)C)cc1,–,> 16 µM (inactive)
O=C(NCc1ccc(F)cc1)C(c1ccccc1)N(CC1CCCO1)C(=O)Cn1nnc2ccccc21 (stereo not drawn),5.93,–
COc1ccc(-c2nnc(NC(=O)c3cc(Cl)ccc3Cl)o2)cc1,5.95,–
O=C(O)c1ccc(-c2nc(-c3ccc(Cl)cc3)cs2)cc1,5.47,–
Cc1ccc(-c2nc(-c3cccnc3)no2)c(C)c1,4.98,–
CC[n+]1c(/C=C/N(C)c2ccccc2)sc2ccc(Cl)cc21,5.50,–
Cc1ccnc(NC(c2cccnc2)c2ccc3cccnc3c2O)c1 (stereo not drawn),4.88,–
O=C(Nc1nnc(SCc2ccc(F)cc2)s1)c1ccccn1,6.31,–

SMILES,pEC50,EC50
Cc1ccc(OCC(=O)N/N=C\c2c(C)[nH]n(-c3ccccc3)c2=O)c([N+](=O)[O-])c1,5.18,–
CCN(c1ccccc1)S(=O)(=O)c1ccc(Cl)c(NC(=O)CN2C(=O)NC3(CCCC3)C2=O)c1,–,> 15 µM (inactive)
O=C(O)CSc1nc(-c2ccc(Cl)cc2)nc2c1oc1ccccc12,5.82,–
COc1cccc(CN2C(=O)C3(C(C#N)=C(N)OC4=C3C(=O)CCC4)c3ccccc32)c1 (stereo not drawn),5.67,–
CCOc1ccc(NC(=S)NNC(=O)c2ccc(Br)cc2)cc1,5.81,–
NC(=O)c1c(NC(=O)c2ccccc2F)sc2c1CCCC2,5.70,–
CC(C)(C)C(=O)NC(=S)NNC(=O)c1sc2ccccc2c1Cl,6.44,–
CC(Oc1cc2oc(=O)c3c(c2cc1Cl)CCCC3)C(=O)NCc1ccncc1 (stereo not drawn),5.18,–
CCCC(=O)NC(c1ccc(OC)cc1)c1ccc2cccnc2c1O (stereo not drawn),6.05,–
O=C(CSCc1ccc(Cl)cc1)Nc1cc([N+](=O)[O-])ccc1O,–,> 15 µM (inactive)
O=C(COS(=O)c1ccccc1)Nc1cc(Cl)ccc1N1CCOCC1 (stereo not drawn),5.51,–
COc1cnc(-c2ccccn2)nc1Sc1ccccc1Cl,–,> 15 µM (inactive)
Cc1ccc2nsnc2c1NC(=O)COc1ccccc1F,–,> 15 µM (inactive)
CCc1ccc2oc(-c3ccc(OC)cc3)cc(=Nc3c(C)n(C)n(-c4ccccc4)c3=O)c2c1,5.81,–
CCOC(=O)c1ccccc1NC(=O)c1cccc([N+](=O)[O-])c1,–,> 15 µM (inactive)
Cc1onc(-c2c(F)cccc2Cl)c1C(=O)NNC(=O)C1CCN(Cc2ccccc2)CC1,–,> 15 µM (inactive)
NC(=NCCCCCCN=C(N)/N=C(\N)Nc1ccc(Cl)cc1)/N=C(\N)Nc1ccc(Cl)cc1,6.13 and 5.82 and 5.67,–
CCc1nnc(NC(=O)Cn2ccc(C(F)(F)F)n2)s1,–,> 15 µM (inactive)
COc1cc([N+](=O)[O-])cc(/C=N/NC(=O)c2ccc(NC(=O)c3ccc(C)cc3)cc2)c1O,5.63,–
COC(=O)c1c(-c2cccs2)csc1NC(=O)c1cccnc1,5.89,–
Cc1ccc(Nc2cc(C)nn2-c2nc(C)cc(=O)[nH]2)cc1,> 6.92,–
CCc1nn(CCCC(=O)NCc2ccc(C)cc2)c(=O)c2cc3occc3n12,–,> 16 µM (inactive)

SMILES,pEC50,EC50
COc1ccc(/C=C(/NC(=O)c2ccccc2)c2nc3ccc(Cl)cc3[nH]2)cc1OC,5.58,–
CC(C)CCNC(=O)C(c1ccco1)N(Cc1ccc(F)cc1)C(=O)c1snc(C(N)=O)c1N (stereo not drawn),4.80,–
Cc1ccsc1C(=O)OCC(=O)Nc1sccc1C(N)=O,6.06,–
Cc1ccc(C(=O)Nc2nc3ccccc3c(=O)s2)cc1,6.34,–
COc1ccc(-n2cc(-c3ccc(C)cc3)[n+]3c2SCC3)cc1,5.53,–
O=C(CNS(=O)(=O)c1ccc(Br)s1)NCC1COc2ccccc2O1 (stereo not drawn),–,> 15 µM (inactive)
Cc1c(Cc2ccccc2)c(=O)oc2c(O)c(O)ccc12,5.56,–
Cc1cc(C)c2ccc(N)nc2c1O,4.85,–
O=c1c2ccc(Cl)cc2nc(-c2ccc([N+](=O)[O-])cc2)n1O,5.96,–
O=C(O)c1ccc(Nc2cnc3ccccc3n2)cc1,–,> 16 µM (inactive)
O=C(NCCCc1ccccc1)Nc1cccc(Cl)c1,4.95,–
Oc1c(C(Nc2nccs2)c2ccc(C(F)(F)F)cc2)ccc2cccnc12 (stereo not drawn),6.22,–
C=C(C)CSc1[nH]c(=O)cc(C)c1C#N,5.90,–
CCOC(=O)c1ccccc1OCc1cc(/C=N/n2cnnc2)ccc1OC,–,> 15 µM (inactive)
CCc1ccc(OCC(=O)NNC(=S)NC(=O)C2CC2)c(Br)c1,5.92,–
O=C(N/N=C/c1ccc(O)c2ncccc12)c1cccc(Br)c1,5.92,–
CC1(C)CC(=O)C2=C(C1)c1c(ccc3ccccc13)NC2c1cc([N+](=O)[O-])cc([N+](=O)[O-])c1O (stereo not drawn),–,> 15 µM (inactive)
Cc1ccc(C2C3=C(CC(C)(C)CC3=O)N=C3c4ccccc4C(=O)C32)cc1 (stereo not drawn),6.11,–
O=C(c1ccc(Cn2c(=O)[nH]c3ccccc3c2=O)cc1)N1CCN(c2ccc(F)cc2)CC1,5.49,–
Cc1ccc(NC(=O)CSc2nnc([C@@H](N)Cc3c[nH]c4ccccc34)o2)c(C)c1,–,> 15 µM (inactive)
